# Reference: US20230099031A1, “BIFUNCTIONAL AGENTS FOR PROTEIN RECRUITMENT AND/OR DEGRADATION” (Orionis Biosciences, Inc., priority 2019, published 2023)
# Key:
# Type in all cases: cell-based
# CRBN = biological target: T1, CRBN (Homo sapiens, UniProt Q96SW2); experiment: Competition Assay: MAPPIT-like, competition with trimethoprim-lenalidomide hybrid ligand for binding to CRBN in HEK293T cells; settings: protocol and reagents of Example 1; read-out: IC50 Competition
# T1 construct: expressed in transfected cells; host or cells: HEK293T
# IKZF1 = biological target: T2, IKZF1 (Homo sapiens, UniProt Q13422+Q96SW2); experiment: Recruitment Assay (MAPPIT-like): IKZF1 recruitment, pSEL-CRBN+pMG1-IKZF1(isoform 7); settings: recruitment of IKZF1, protocol of Example 2; read-out: EC50_IKZF1
# T2 construct: expressed in transfected cells; host or cells: HEK293T
# Description: (§1) In this experimental set-up, cells are transfected with a construct encoding a CRBN-fusion protein and another one encoding a substrate-fusion protein. Test compound activity is assessed with increasing concentrations of test compounds (dose-response studies) to monitor the ability to promote CRBN-ligand-induced protein interaction.
# (§2) Full size proteins are fused for each of the target proteins tested, except in the case of IKZF1 where isoform 7 is used, and BRD4, where isoform 3 is applied. For the study, the following construct combinations are used: IKZF1 recruitment: pSEL-CRBN+pMG1-IKZF1(isoform 7); ASS1 recruitment: pSEL-CRBN+pMG1-ASS1; SALL4 recruitment: pSEL-SALL4+pMG1-CRBN; DHFR recruitment: pCLG-DHFR+pMG1-CRBN; ESR1 recruitment: pSEL-CRBN+pMG1-ESR1; BRD4 recruitment: pSEL-CRBN+pMG1-BRD4(isoform 3). Cells are treated with erythropoietin (Epo; where pSEL-type receptor fusions constructs are used) or leptin (in the case pCLG-type receptor fusion constructs are applied) without or with the indicated dose of test compound at 24 hours after transfection. Luciferase activity is measured 24 hours after test compound treatment using the Luciferase Assay System kit (PROMEGA, Madison, Wis.) with an Ensight plate reader (PERKIN ELMER LIFE SCIENCES, Waltham, Mass.). Data points depict fold induction of the average luciferase activity of triplicate samples from Epo or leptin+test compound treated cells versus Epo or leptin only treated cells. Error bars represent standard deviations. Curves are fit using 4-parameter nonlinear regression in […] PRISM software.
# ASS1 = biological target: T3, ASS1 (Homo sapiens, UniProt P00966+Q96SW2); experiment: Recruitment Assay (MAPPIT-like): ASS1 recruitment, pSEL-CRBN+pMG1-ASS1; settings: recruitment of ASS1, protocol of Example 2; for EC50: read-out: EC50_ASS1
# T3 construct: Full size proteins are fused for each of the target proteins tested; expressed in transfected cells; host or cells: HEK293T
# Description: as §1, §2
# SALL4 = biological target: T4, SALL4 (Homo sapiens, UniProt Q96SW2+Q9UJQ4); experiment: Recruitment Assay (MAPPIT-like): SALL4 recruitment, pSEL-SALL4+pMG1-CRBN; settings: recruitment of SALL4, protocol of Example 2; read-out: EC50_SALL4
# T4 construct: Full size proteins are fused for each of the target proteins tested; expressed in transfected cells; host or cells: HEK293T
# Description: as §1, §2
SMILES,IC50 (CRBN) [nM],EC50 (IKZF1) [nM],EC50 (ASS1) [µM],EC50 (SALL4) [nM],EC50_ASS1 (M) (ASS1)
"Cc1cccc2nnn(C3CCC(=O)NC3=O)c(=O)c12 (stereo not shown) [Compound C13247, 3-(5-methyl-4-oxo-1,2,3-benzotriazin-3-yl)piperidine-2,6-dione]",2290,2880,8.55,402,–
"CS(=O)(=O)Nc1cccc2c1CN(C1CCC(=O)NC1=O)C2=O (stereo not shown) [Compound C22548, N-[2-(2,6-dioxo-3-piperidyl)-1-oxo-isoindolin-4-yl]methanesulfonamide]",1110,494,–,631,>>
"O=C1CCC(N2Cc3c(Cl)cccc3C2=O)C(=O)N1 (stereo not shown) [Compound C24031, 3-(4-chloro-1-oxo-isoindolin-2-yl)piperidine-2,6-dione]",11.5,58.7,0.259,< 13.7,–
"Cc1ccc2c(c1)CN(C1CCC(=O)NC1=O)C2=O (stereo not shown) [Compound C28577, 3-(5-methyl-1-oxo-isoindolin-2-yl)piperidine-2,6-dione]",113,1610,0.653,< 13.7,–
"Cc1cccc2c(=O)n(C3CCC(=O)NC3=O)nnc12 (stereo not shown) [Compound C35830, 3-(8-methyl-4-oxo-1,2,3-benzotriazin-3-yl)piperidine-2,6-dione]",3460,–,5.56,588,–
"O=C1CCC(N2Cc3ncccc3C2=O)C(=O)N1 (stereo not shown) [Compound C47959, 3-(5-oxo-7H-pyrrolo[3,4-b]pyridin-6-yl)piperidine-2,6-dione]",2570,–,–,441,>>
"O=C(O)CNc1ccc2c(c1)CN(C1CCC(=O)NC1=O)C2=O (stereo not shown) [Compound C47995, 2-[[2-(2,6-dioxo-3-piperidyl)-1-oxo-isoindolin-5-yl]amino]acetic acid]",3710,–,–,518,>>
"N#Cc1cccc2c1CN(C1CCC(=O)NC1=O)C2=O (stereo not shown) [Compound C48003, 2-(2,6-dioxo-3-piperidyl)-1-oxo-isoindoline-4-carbonitrile]",622,–,–,581,>>
"O=C1CCC(N2C(=O)c3ccccc3C2O)C(=O)N1 (stereo not shown) [Compound C89940, 3-(1-hydroxy-3-oxo-isoindolin-2-yl)piperidine-2,6-dione]",3290,–,–,438,>>

# Second part, the molecule after the results:
IC50 (CRBN) [nM],EC50 (IKZF1) [nM],EC50 (ASS1) [µM],EC50 (SALL4) [nM],EC50_ASS1 (M) (ASS1),SMILES
50.4,77.4,0.368,< 13.7,–,"Cc1cccc2c1CN(C1CCC(=O)NC1=O)C2=O (stereo not shown) [Compound C28558, 3-(4-methyl-1-oxo-isoindolin-2-yl)piperidine-2,6-dione]"
–,1410,–,–,–,"O=C1CCCC(N2Cc3c(cccc3[N+](=O)[O-])C2=O)C(=O)N1 (stereo not shown) [Compound C29737, 3-(4-nitro-1-oxo-isoindolin-2-yl)azepane-2,7-dione]"
7520,17100,–,875,–,"N#CC1c2ccccc2C(=O)N1C1CCC(=O)NC1=O (stereo not shown) [Compound C39453, 2-(2,6-dioxo-3-piperidyl)-3-oxo-isoindoline-1-carbonitrile]"
–,784,–,–,–,"Nc1cccc2c1CN(C1CC(=O)NC1=O)C2=O (stereo not shown) [Compound C47930, 3-(4-amino-1-oxo-isoindolin-2-yl)pyrrolidine-2,5-dione]"
564,–,–,319,>>,"O=C1CCC(N2Cc3cc4c(cc3C2=O)OCO4)C(=O)N1 (stereo not shown) [Compound C68126, 3-(7-oxo-5H-[1,3]dioxolo[4,5-f]isoindol-6-yl)piperidine-2,6-dione]"
2210,–,9.42,387,–,"N#Cc1ccc(Nc2ccc3c(c2)CN(C2CCC(=O)NC2=O)C3=O)nn1 (stereo not shown) [Compound C80378, 6-[[2-(2,6-dioxo-3-piperidyl)-1-oxo-isoindolin-5-yl]amino]pyridazine-3-carbonitrile]"
760,1780,–,9.89,–,"O=C1CCC(N2Cc3cc(Nc4ncc5c(n4)COC5)ccc3C2=O)C(=O)N1 (stereo not shown) [Compound C80380, 3-[5-(5,7-dihydrofuro[3,4-d]pyrimidin-2-ylamino)-1-oxo-isoindolin-2-yl]piperidine-2,6-dione]"
